Laboratory results from US20120045816A1, “Novel Glycosylated Polypeptides” (Sialix, Inc., priority 2008, published 2012).

Key:
[1] = tested on: CHO cells; assay: Reduction of Neu5Gc contamination in CHO cells by feeding Neu5Ac; assay type: cell-based, Chinese Hamster; conditions: 5 mM Neu5Ac in medium; DMB-HPLC and Western blot; FIG. 3C-E
Description: Reduction of Neu5Gc Contamination in Glycosylated polypeptides in CHO Cells. A similar approach was taken to CHO cells stably expressing a Siglec-Fc protein in the medium, except that the Neu5Gc pulse was omitted, and the secreted glycoproteins were captured on Protein-A Sepharose beads. The cells were also processed similarly, except that total cell membranes were pelleted by centrifugation. The Sias content of the secreted proteins and cell membranes was determined by acid hydrolysis, DMB derivatization and HPLC. The cell membranes were also studied for NueSGc content by Western-blotting with the chicken anti-Neu5Gc IgY, as described above.
Free Neu5Ac in Non-Human CHO Cell Culture Medium Reduces Neu5Gc Contamination. However, many recombinant glycosylated polypeptides are currently produced in non-human cells, e.g., Chinese Hamster Ovary (CHO) cell lines. Glycosylated polypeptide produced in CHO cells carry small amounts of Neu5Gc^19,5. […] The individually collected media was centrifuged to remove cell debris and adjusted to 5 mM Tris-HCl pH 8. The fusion protein was purified using Protein-A Sepharose. Sialic acid content was determined by DMB-HPLC analysis (FIG. 3C). The area under each peak was obtained and the percent of Neu5Gc in each sample was determined relative to Neu5Ac. Total cell membranes from the same CHO cells were prepared and used for DMB-HPLC analysis (FIG. 3D). […]

[2] = tested on: Human 293T cells; assay: Reduction of Neu5Gc contamination in 293T human kidney cells by Neu5Ac chase; assay type: cell-based; conditions: 5 mM Neu5Ac chase after 5 mM Neu5Gc for 3 days; HPLC; FIG. 3A-B
Description: Reduction of Neu5Gc Contamination in Glycosylated Polypeptides in 293T Human Kidney Cells. 293T human kidney cells were grown in DME supplemented with 10% FCS. Cells were lifted from culture plate using 20 mM EDTA in PBS and allowed to grow to 50% confluence. Buffered 100 mM Neu5Gc was added to the culture in duplicate at a final 5 mM concentration, and the cells were grown in this supplemented media for 3 days. At the end of this Neu5Gc pulse, the cells were once again lifted using 20 mM EDTA in PBS, pelleted, washed once with PBS to remove any excess Neu5Gc and then suspended in 30 ml of growth medium. Five ml of this cell suspension was added to each of […]. The last aliquot of cell suspension, time “0”, was immediately harvested by pelleting the cells, washing once with PBS, followed by suspending the cells in 1 ml of PBS and transferring to a 1.5 ml microcentrifuge tube. The cells were re-pelleted and frozen until all time points were collected. […]
Free Neu5Ac in Human 293T Cell Culture Medium Reduces Neu5Gc Contamination. […] Cells were harvested as described above, and the Neu5Gc and Neu5Ac content of both the ethanol soluble (FIG. 3A) and ethanol precipitable proteins (FIG. 3B) was analyzed by HPLC. […]

[3] = tested on: anti-Neu5Gc antibodies from whole human sera; assay: Direct binding of anti-Neu5Gc antibodies from whole human sera to Fab fragments (ELISA); conditions: serum S34; Fab fragments 1 μg/well; FIG. 2C
Description: Direct binding of anti-Neu5Gc antibodies from whole human sera to the glycosylated polypeptides, Cet and Pan, was evaluated. […] Fab fragments (1 μg/well) were used as target molecules in ELISA. Sialic acid specific binding was determined with sodium metaperiodate treatment. Wells were then blocked and incubated with human sera (S30 and S34 with low and high anti-Neu5Gc IgG titers, respectively, from Ref. 7).

[4] = tested on: affinity-purified chicken anti-Neu5Gc IgY; assay: ELISA detection of Neu5Gc on Cetuximab and Panitumumab; assay type: binding; conditions: 1 μg antibody per well; FIG. 1A
Text: Sialidase Treatment of Cet and Pan. […] Samples were used for ELISA or Western Blots.
ELISA samples were studied at least in triplicate. […] Samples were studied in triplicate.
ELISA We first did ELISA assays using an affinity-purified polyclonal chicken anti-Neu5Gc antibody preparation that is highly mono-specific for Neu5Gc^5, alongside a non-reactive control IgY.

[5] = tested on: anti-Neu5Gc antibodies in human serum; assay: CIC-C1q binding assay, immune complex formation in whole human serum; conditions: 40 μg antibody in 100 μl serum, FIG. 1F
Description: CIC-C1q Binding Assay. […] 1:50 dilutions of the mix were applied to human C1 q coated ELISA wells, and incubated for 1 h at 25° C. […] The absorbance was measured at 405 nm. Samples were studied in triplicate.
(§1) Sialic Acid Quantity. The levels of Sialic acids on the therapeutic antibodies (TAbs) Cet and Pan were determined. […] Cet and Pan (1 μg each) were separated by SDS-PAGE and Coomassie stained or blotted (see FIG. 1B). […] The absorbance was measured at 405 nm.

[6] = Sialic acid quantity (DMB-HPLC); assay type: physicochemical
Description: DMB-HPLC. Samples were subjected to base treatment with 0.1 M NaOH (final) at 37° C. for 30 min to remove O-acetyl esters, and the sialic acids were released by acid hydrolysis with 2 M acetic acid (final), at 80° C. for 3 hours. Samples were passed through Microcon-10 columns (20 min, 10000×g; Millipore), derivatized with 1,2-diamino-4,5-methyl dioxybenzene (DMB), and analyzed by HPLC as described^9 in Hara et al., 1986, J. Chromatography 377:111-119. Measured values of non acid-treated controls (free sialic acids) were subtracted.
as §1

| Compound | Effect on Neu5Gc of membrane glycoproteins and a secreted recombinant protein [1] | Effect on Neu5Gc content of cells preloaded with Neu5Gc [2] | Mild periodate sensitive binding of serum IgG to Fab fragments, high anti-Neu5Gc titer serum [3] | Bound Neu5Gc detected by chicken anti-Neu5Gc IgY (ELISA) [4] | Immune complex formation, low titer human serum ([5]; serum S30) | Immune complex formation, human serum with high levels of anti-Neu5Gc antibodies ([5]; serum S34) | Share of Neu5Gc in the Sias [6] [%] | Sias carried by the antibody [6] [mol/mol] |
| --- | --- | --- | --- | --- | --- | --- | --- | --- |
| CC(=O)N[C@H]1[C@H]([C@H](O)[C@H](O)CO)OC(O)(C(=O)O)C[C@@H]1O (some centres unmarked) [Neu5Ac, N-acetylneuraminic acid] | reduces Neu5Gc in CHO cells | more rapid disappearance of ethanol-precipitable (glycosidically-bound) Neu5Gc |  |  |  |  |  |  |
| Panitumumab: fully human antibody against the EGF receptor produced in Chinese Hamster Ovary cells |  |  | not to those of Panitumumab | not on Panitumumab | no detectable immune complex formation | no detectable immune complex formation | < 0.1 | 0.22 |
